ChEMBL document CHEMBL4334438, “Discovery of novel glycogen synthase kinase-3α inhibitors: Structure-based virtual screening, preliminary SAR and biological evaluation for treatment of acute myeloid leukemia” (Eur J Med Chem, 2019)

Legend:
[1] = target: Glycogen synthase kinase-3 alpha (Homo sapiens, UniProt P49840); experiment: Inhibition of GSK-3alpha phosphorylation at Y279 residue in human NB4 cells after 24 hrs by Western blot analysis; type: cell-based
[2] = target: Aurora kinase B (Homo sapiens) (UniProt Q96GD4); experiment: Inhibition of recombinant full length human Aurora B assessed as residual activity at 1 uM using AKRRRLSSLRA as substrate incubated for 40 mins in presence of [gamma-33ATP] by scintillation counting based radiometry assay relative to control
Sequence of Aurora kinase B (Homo sapiens) (Q96GD4 whole entry): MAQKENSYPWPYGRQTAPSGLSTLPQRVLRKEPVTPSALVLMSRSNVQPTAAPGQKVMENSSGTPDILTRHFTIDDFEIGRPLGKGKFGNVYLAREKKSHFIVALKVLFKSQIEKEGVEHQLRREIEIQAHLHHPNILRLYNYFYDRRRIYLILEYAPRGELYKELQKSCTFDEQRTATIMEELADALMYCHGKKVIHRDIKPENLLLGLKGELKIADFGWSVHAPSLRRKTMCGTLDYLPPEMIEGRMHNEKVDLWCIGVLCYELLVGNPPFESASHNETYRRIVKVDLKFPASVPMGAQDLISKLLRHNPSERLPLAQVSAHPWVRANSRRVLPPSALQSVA

[3] = target: CDK6/cyclin D3 (Homo sapiens) (UniProt P30281+Q00534); experiment: Inhibition of recombinant full length human CDK6/cyclinD3 assessed as residual activity at 1 uM using histone H1 as substrate incubated for 40 mins in presence of [gamma-33ATP] by scintillation counting based radiometry assay relative to control; type: protein-complex assay
[4] = target: Dual specificity protein kinase CLK4 (Homo sapiens) (UniProt Q9HAZ1); experiment: Inhibition of recombinant human CLK4 (128 to end residues) assessed as residual activity at 1 uM using YRRAAVPPSPSLSR as substrate incubated 40 mins in presence of [gamma-33ATP] by scintillation counting based radiometry assay relative to control
[5] = target: Serine/threonine-protein kinase DCLK2 (Homo sapiens) (UniProt Q8N568); experiment: Inhibition of recombinant human DCAMKL2 (376 to end residues) assessed as residual activity at 1 uM using KKLNRTLSFAEPG as substrate at 40 mins in presence of [gamma-33ATP] by scintillation counting based radiometry assay relative to control
[6] = target: Serine/threonine-protein kinase 17B (Homo sapiens) (UniProt O94768); experiment: Inhibition of recombinant human DRAK2 assessed as residual activity at 1 uM using KKRPQRRYSNVF as substrate at 120 mins in presence of [gamma-33ATP] by scintillation counting based radiometry assay relative to control
Sequence of Serine/threonine-protein kinase 17B (Homo sapiens) (O94768 whole entry, the tested form may be a part): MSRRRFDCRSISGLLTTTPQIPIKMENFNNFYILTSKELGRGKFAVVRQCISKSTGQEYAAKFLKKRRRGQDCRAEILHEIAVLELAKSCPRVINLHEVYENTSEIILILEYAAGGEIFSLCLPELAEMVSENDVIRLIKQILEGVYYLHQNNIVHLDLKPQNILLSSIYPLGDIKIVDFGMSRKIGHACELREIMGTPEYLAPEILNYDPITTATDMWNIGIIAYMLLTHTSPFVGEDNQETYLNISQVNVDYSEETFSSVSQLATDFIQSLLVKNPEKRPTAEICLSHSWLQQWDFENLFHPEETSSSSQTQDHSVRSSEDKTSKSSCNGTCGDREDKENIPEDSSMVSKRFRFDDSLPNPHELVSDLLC

[7] = target: Fibroblast growth factor receptor 4 (Homo sapiens) (UniProt P22455); experiment: Inhibition of recombinant human FGFR4 (442 to 755 residues) assessed as residual activity at 1 uM using poly(Glu, Tyr) 4:1 as substrate at 40 mins in presence of [gamma-33ATP] by scintillation counting based radiometry assay relative to control
[8] = target: Vascular endothelial growth factor receptor 1 (Homo sapiens) (UniProt P17948); experiment: Inhibition of recombinant human FLT1 (783 to end residues) assessed as residual activity at 1 uM using KKKSPGEYVNIEFG as substrate at 40 mins in presence of [gamma-33ATP] by scintillation counting based radiometry assay relative to control
Sequence of Vascular endothelial growth factor receptor 1 (Homo sapiens) (P17948 whole entry): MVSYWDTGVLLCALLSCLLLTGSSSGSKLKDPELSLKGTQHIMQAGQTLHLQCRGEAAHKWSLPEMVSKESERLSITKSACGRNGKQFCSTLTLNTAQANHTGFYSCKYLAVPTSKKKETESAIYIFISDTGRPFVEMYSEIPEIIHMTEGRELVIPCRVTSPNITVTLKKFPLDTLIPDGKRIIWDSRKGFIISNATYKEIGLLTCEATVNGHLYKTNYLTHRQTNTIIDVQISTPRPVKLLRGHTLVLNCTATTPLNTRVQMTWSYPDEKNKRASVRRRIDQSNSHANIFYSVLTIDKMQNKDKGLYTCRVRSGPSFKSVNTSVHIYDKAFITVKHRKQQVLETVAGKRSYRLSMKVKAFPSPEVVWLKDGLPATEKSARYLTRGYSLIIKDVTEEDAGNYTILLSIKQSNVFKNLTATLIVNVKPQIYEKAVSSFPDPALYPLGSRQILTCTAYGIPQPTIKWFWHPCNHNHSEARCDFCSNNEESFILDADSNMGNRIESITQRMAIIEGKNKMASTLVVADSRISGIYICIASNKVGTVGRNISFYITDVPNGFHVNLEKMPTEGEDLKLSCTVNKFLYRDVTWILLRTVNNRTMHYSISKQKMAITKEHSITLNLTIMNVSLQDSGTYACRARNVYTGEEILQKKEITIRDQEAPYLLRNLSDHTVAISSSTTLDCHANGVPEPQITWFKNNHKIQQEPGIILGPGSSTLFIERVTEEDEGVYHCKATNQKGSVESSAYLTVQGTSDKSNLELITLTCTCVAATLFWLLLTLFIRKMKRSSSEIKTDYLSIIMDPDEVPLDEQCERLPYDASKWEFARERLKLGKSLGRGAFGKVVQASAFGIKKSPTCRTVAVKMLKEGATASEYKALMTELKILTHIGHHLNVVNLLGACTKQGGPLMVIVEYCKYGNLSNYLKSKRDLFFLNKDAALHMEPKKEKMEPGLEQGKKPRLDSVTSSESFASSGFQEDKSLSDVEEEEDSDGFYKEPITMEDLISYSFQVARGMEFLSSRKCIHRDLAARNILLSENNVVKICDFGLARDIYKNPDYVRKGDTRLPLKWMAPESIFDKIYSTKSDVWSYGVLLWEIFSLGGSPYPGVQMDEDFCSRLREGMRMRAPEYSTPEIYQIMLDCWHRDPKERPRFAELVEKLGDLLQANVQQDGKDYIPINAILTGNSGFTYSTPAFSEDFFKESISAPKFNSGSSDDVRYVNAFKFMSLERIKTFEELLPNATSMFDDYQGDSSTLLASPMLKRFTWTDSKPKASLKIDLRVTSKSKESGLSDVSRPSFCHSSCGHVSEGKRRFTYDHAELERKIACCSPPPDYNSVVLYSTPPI

[9] = target: Macrophage colony-stimulating factor 1 receptor (Homo sapiens) (UniProt P07333); experiment: Inhibition of recombinant human FMS (538 to end residues) assessed as residual activity at 1 uM using EEEEYEEEEEEYYIIEEEEEEYEEEEEEYYEEEEEEKKKK as substrate at 40 mins in presence of [gamma-33ATP] by scintillation counting based radiometry assay relative to control
[10] = target: Vascular endothelial growth factor receptor 2 (Homo sapiens) (UniProt P35968); experiment: Inhibition of human KDR (790 to end residues) assessed as residual activity at 1 uM using myelin basic protein as substrate after 40 mins by [gamma-33ATP] radiometric assay relative to control
[11] = target: LIM domain kinase 2 (Homo sapiens) (UniProt P53671); experiment: Inhibition of recombinant human LIMK2 assessed as residual activity after 1 uM by radiometry assay relative to control
Sequence of LIM domain kinase 2 (Homo sapiens) (P53671 whole entry, looked up, the tested form may be a part): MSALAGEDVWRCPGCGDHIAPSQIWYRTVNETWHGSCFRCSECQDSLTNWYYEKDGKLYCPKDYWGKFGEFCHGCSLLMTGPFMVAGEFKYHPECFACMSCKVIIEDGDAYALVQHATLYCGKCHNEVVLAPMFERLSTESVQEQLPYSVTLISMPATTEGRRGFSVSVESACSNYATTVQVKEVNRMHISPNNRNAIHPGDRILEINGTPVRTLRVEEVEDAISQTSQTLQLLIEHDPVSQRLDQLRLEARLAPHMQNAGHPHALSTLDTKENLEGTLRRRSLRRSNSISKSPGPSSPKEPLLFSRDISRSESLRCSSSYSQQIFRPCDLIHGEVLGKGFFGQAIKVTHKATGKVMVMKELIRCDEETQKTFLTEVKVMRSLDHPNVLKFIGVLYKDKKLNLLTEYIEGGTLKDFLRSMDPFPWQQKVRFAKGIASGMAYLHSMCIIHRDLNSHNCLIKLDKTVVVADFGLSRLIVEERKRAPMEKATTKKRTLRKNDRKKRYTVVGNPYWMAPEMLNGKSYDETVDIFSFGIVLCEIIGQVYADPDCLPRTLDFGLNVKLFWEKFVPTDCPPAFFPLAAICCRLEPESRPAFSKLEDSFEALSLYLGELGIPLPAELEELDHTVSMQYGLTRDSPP

[12] = target: MAP kinase-activated protein kinase 3 (Homo sapiens) (UniProt Q16644); experiment: Inhibition of recombinant human MAPKAPK3 (2 to end residues) assessed as residual activity at 1 uM using KKLNRTLSVA as substrate incubated for 40 mins in presence of [gamma-33ATP by scintillation counting based radiometry assay relative to control
Sequence of MAP kinase-activated protein kinase 3 (Homo sapiens) (Q16644 whole entry, looked up): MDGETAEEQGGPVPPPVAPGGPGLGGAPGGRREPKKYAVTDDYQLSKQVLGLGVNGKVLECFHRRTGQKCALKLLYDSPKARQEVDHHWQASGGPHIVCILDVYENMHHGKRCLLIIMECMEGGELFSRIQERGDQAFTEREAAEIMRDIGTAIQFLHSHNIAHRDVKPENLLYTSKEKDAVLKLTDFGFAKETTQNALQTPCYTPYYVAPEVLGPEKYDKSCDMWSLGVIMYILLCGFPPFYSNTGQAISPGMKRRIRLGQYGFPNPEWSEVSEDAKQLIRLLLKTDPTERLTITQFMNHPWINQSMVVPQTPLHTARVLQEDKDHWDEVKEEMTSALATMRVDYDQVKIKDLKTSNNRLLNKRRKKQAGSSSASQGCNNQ

[13] = target: Mitogen-activated protein kinase kinase kinase 3 (Homo sapiens) (UniProt Q99759); experiment: Inhibition of recombinant full length human MEKK3 assessed as residual activity at 1 uM using myelin basic protein as substrate incubated for 120 mins in presence of [gamma-33ATP by scintillation counting based radiometry assay relative to control
Homo sapiens = organism: Homo sapiens; experiment: Inhibition of recombinant human MER H628Q/R794A mutant (557 to 882 residues) assessed as residual activity at 1 uM using GGMEDIYFEFMGGKKK as substrate incubated for 40 mins in presence of [gamma-33ATP by scintillation counting based radiometry assay relative to control
[14] = target: Serine/threonine-protein kinase Nek1 (Homo sapiens) (UniProt Q96PY6); experiment: Inhibition of recombinant human NEK1 (1 to 505 residues) assessed as residual activity at 1 uM using RLGRDKYKTLRQI as substrate measured after 40 mins in presence of [gamma33P]ATP by scintillation counting based radiometry assay relative to control
Sequence of Serine/threonine-protein kinase Nek1 (Homo sapiens) (Q96PY6 whole entry, the tested form may be a part): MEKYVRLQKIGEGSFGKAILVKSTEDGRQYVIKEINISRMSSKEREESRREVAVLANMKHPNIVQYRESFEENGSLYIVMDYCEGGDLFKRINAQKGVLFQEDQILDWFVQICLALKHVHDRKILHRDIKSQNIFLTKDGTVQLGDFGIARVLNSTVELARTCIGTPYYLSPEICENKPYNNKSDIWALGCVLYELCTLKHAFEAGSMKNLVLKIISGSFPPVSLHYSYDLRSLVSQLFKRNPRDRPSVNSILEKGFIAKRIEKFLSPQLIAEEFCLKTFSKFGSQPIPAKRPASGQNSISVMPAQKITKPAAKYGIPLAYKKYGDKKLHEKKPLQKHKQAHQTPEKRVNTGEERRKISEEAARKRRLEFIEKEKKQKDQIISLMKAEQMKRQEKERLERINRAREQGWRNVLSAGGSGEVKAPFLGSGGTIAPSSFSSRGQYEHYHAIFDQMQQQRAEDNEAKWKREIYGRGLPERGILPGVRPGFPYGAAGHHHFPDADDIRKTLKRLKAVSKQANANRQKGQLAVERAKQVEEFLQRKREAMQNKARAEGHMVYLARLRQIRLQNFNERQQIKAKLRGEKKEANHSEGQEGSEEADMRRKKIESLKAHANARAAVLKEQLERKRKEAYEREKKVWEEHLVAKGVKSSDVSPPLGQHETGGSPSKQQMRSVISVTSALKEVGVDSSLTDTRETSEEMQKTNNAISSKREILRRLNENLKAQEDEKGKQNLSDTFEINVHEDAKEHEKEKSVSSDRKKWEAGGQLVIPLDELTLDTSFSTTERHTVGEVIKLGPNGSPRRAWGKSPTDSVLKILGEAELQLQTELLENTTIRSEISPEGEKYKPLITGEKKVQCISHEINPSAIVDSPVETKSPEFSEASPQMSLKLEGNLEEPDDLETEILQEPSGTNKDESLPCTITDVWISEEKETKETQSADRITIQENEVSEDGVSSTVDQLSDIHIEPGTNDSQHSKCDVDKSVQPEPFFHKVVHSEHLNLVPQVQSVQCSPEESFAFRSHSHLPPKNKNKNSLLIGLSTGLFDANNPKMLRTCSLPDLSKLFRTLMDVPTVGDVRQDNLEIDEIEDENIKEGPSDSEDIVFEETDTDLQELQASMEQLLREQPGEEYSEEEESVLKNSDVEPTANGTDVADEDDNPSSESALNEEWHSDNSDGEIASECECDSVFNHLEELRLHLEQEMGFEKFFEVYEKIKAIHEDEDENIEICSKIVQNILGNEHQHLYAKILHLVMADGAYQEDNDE

[15] = target: Serine/threonine-protein kinase Nek2 (Homo sapiens) (UniProt P51955); experiment: Inhibition of recombinant full-length human NEK2 assessed as residual activity at 1 uM using myelin basic protein as substrate measured after 40 mins in presence of [gamma33P]ATP by scintillation counting based radiometry assay relative to control
[16] = test system: Serine/threonine-protein kinase N1 (Homo sapiens), Q16512 [V901I]; experiment: Inhibition of recombinant human PRK1 V901I mutant (498 to end residues) assessed as residual activity at 1 uM using KKLNRTLSFAEPG as substrate measured after 40 mins in presence of [gamma33P]ATP by scintillation counting method relative to control
[17] = target: Mitogen-activated protein kinase 13 (Homo sapiens) (UniProt O15264); experiment: Inhibition of recombinant human full length SAPK4 assessed as residual activity at 1 uM using myelin basic protein as substrate measured after 40 mins in presence of [gamma33P]ATP by scintillation counting method relative to control
[18] = target: Serine/threonine-protein kinase 32A (Homo sapiens) (UniProt Q8WU08); experiment: Inhibition of recombinant full-length human STK32A at 1 uM assessed as residual activity at 1 uM using casein as substrate measured after 120 mins in presence of [gamma33P]ATP by scintillation counting method relative to control
Sequence of Serine/threonine-protein kinase 32A (Homo sapiens) (Q8WU08 whole entry): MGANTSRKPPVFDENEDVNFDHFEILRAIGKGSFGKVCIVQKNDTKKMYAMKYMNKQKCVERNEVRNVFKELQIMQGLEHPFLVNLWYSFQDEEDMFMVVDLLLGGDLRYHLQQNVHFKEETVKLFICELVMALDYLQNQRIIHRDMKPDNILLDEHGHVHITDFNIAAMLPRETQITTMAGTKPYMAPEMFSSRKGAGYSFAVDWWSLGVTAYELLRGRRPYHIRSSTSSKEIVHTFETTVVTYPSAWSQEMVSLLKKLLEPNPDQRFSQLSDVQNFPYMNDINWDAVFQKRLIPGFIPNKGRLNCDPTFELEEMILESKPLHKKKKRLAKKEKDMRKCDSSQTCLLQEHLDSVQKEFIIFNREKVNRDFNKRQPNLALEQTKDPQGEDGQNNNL

[19] = target: Serine/threonine-protein kinase 32C (Homo sapiens) (UniProt Q86UX6); experiment: Inhibition of recombinant full-length human STK32C at 1 uM assessed as residual activity at 1 uM using casein as substrate measured after 120 mins in presence of [gamma33P]ATP by scintillation counting method relative to control
[20] = target: Testis-specific serine/threonine-protein kinase 1 (Homo sapiens) (UniProt Q9BXA7); experiment: Inhibition of recombinant full-length human TSSK1 at 1 uM assessed as residual activity at 1 uM using KKKVSRSGLYRSPSMPENLNRPR as substrate measured after 120 mins in presence of [gamma33P]ATP by scintillation counting method relative to control
[21] = test system: PI3-kinase p110-alpha/p85-alpha (Homo sapiens), P27986+P42336 [H1047R]; experiment: Inhibition of recombinant full-length human PI3K p110alpha H1047R mutant/p85alpha assessed as residual activity at 1 uM assessed as residual activity at 1 uM using phosphatidylinositol-4, 5-bisphosphate as substrate incubated for 40 mins in presence of [gamma33P]ATP by scintillation counting based radiometry assay relative to control; type: protein-complex assay

SMILES | Activity [2] | Activity [3] | Activity [4] | Activity [5] | Activity [6] | Activity [7] | Activity [8] | Activity [9] | Activity [10] | Activity [11] | Activity [12] | Activity [13] | Activity (Homo sapiens) | Activity [14] | Activity [15] | Activity [16] | Activity [17] | Activity [18] | Activity [19] | Activity [20] | other results
C=CCOC(=O)c1cc(-c2ccc(/C=C3/NC(=S)NC3=O)o2)ccc1Cl | 110% | 84% | 18% | 104% | 80% | 95% | 96% | 117% | 98% | 95% | 96% | 96% | 101% | 95% | 101% | 98% | 89% | 101% | 94% | 97% | inhibition [1]: Dose-dependent effect; Activity [21]: 94%
N=C1NC(=O)/C(=C\c2ccc(-c3cccc([N+](=O)[O-])c3)o2)S1 | 94% | 92% | 60% | 102% | 59% | 106% | 97% | 106% | 94% | 101% | 97% | 98% | 97% | 107% | 95% | 90% | 97% | 100% | 101% | 91% | Activity [21]: 100%
